Results reported in patent publication US20230257372A1 (CHONG KUN DANG PHARMACEUTICAL CORP., priority 2020, published 2023).

Columns and labels:
human recombinant HDAC6 = biological target: T1, human recombinant HDAC6 (Homo sapiens, UniProt Q9UBN7); assay: HDAC6 enzyme activity inhibition (HDAC Fluorimetric Drug Discovery Kit); type: biochemical; conditions: for HDAC6 selectivity (fold): HDAC1 IC50 / HDAC6 IC50; for IC50: human recombinant HDAC6, IC50 calculated with GraphPad Prism
T1 construct: purchased Calbiochem Inc. 382180
T1 sequence (Q9UBN7 1-1215): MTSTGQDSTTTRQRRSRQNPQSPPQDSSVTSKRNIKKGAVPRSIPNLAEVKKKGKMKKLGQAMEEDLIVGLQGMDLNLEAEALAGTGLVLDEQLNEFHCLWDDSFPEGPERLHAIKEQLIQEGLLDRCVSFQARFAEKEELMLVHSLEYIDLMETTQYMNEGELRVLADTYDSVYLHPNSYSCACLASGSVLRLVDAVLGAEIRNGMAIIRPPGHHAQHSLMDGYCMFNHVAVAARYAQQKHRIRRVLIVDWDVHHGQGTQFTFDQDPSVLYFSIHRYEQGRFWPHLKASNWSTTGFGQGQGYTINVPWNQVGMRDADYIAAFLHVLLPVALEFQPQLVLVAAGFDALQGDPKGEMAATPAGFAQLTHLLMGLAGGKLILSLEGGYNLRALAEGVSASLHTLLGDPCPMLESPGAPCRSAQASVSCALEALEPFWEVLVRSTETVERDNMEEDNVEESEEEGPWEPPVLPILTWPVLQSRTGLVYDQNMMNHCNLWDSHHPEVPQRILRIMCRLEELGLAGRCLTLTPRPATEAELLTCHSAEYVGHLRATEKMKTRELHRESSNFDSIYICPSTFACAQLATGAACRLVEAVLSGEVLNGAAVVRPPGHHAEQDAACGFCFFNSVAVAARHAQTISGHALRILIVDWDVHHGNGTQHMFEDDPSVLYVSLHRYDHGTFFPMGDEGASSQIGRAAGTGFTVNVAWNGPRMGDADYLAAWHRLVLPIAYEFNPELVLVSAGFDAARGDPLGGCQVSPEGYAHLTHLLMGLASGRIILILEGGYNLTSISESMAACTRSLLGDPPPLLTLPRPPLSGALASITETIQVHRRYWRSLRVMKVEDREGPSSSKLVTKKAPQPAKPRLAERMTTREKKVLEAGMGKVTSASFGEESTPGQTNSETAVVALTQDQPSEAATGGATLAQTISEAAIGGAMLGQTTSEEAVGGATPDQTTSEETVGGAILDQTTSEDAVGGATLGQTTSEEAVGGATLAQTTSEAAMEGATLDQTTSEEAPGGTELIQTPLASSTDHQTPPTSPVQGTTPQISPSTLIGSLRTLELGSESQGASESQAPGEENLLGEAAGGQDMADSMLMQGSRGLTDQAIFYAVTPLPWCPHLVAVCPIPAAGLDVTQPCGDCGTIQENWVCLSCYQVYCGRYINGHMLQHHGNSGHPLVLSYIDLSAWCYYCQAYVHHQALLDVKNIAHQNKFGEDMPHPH
Procedure, shortened: (§1)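 Fluorimetric deacetylase read-out. 5-fold compound dilutions; […] enzyme, 10 μM substrate; 30° C, 60 min; developer 30 min.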

human recombinant HDAC1 = biological target: T2, human recombinant HDAC1 (Homo sapiens, UniProt Q13547); assay: HDAC1 enzyme activity inhibition (HDAC Fluorimetric Drug Discovery Kit); type: biochemical; conditions: human recombinant HDAC1; IC50 calculated with GraphPad Prism; read-out: HDAC1
T2 construct: purchased Enzo Life Science, Inc. BML-SE456
T2 sequence (Q13547 whole entry): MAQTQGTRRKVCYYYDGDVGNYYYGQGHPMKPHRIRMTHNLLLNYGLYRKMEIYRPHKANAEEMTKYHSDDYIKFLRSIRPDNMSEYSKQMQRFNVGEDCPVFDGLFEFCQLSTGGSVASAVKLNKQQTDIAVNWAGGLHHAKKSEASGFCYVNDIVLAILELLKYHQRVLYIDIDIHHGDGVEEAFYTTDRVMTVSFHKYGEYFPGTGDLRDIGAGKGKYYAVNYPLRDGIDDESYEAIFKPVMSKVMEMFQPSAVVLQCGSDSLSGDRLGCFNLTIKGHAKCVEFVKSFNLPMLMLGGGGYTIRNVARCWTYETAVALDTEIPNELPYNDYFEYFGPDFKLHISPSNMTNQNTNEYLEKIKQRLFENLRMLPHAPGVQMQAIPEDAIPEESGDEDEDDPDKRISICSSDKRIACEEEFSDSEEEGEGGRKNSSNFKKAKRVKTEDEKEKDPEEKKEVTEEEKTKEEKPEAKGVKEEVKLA
Procedure, shortened: as §1

SMILES | HDAC6 selectivity (fold) (human recombinant HDAC6) | IC50 (human recombinant HDAC6) [nM] | IC50 (human recombinant HDAC1) [nM]
CCN1CCN(Cc2ccc(-c3cn(Cc4ccc(-c5nnc(C(F)F)o5)cc4F)nn3)cc2)CC1 [Compound 4474, 2-(difluoromethyl)-5-(4-((4-(4-((4-ethylpiperazin-1-yl)methyl)phenyl)-1H-1,2,3-triazol-1-yl)methyl)-3-fluorophenyl)-1,3,4-oxadiazole] | 1213 | 41.2 | > 50000
CC(C)N1CCN(Cc2ccc(-c3cn(Cc4ccc(-c5nnc(C(F)F)o5)cc4F)nn3)cc2)CC1 [Compound 4475, 2-(difluoromethyl)-5-(3-fluoro-4-((4-(4-((4-isopropylpiperazin-1-yl)methyl)phenyl)-1H-1,2,3-triazol-1-yl)methyl)phenyl)-1,3,4-oxadiazole] | 1269 | 39.4 | > 50000
OCc1ccc(-c2cn(Cc3ccc(-c4nnc(C(F)F)o4)cc3F)nn2)cc1 [Compound 4476, (4-(1-(4-(5-(difluoromethyl)-1,3,4-oxadiazol-2-yl)-2-fluorobenzyl)-1H-1,2,3-triazol-4-yl)phenyl)methanol] | 1022 | 48.9 | > 50000
Fc1cc(-c2nnc(C(F)F)o2)ccc1Cn1cc(-c2ccc(CNC3CCC(F)(F)CC3)cc2)nn1 [Compound 4477, N-(4-(1-(4-(5-(difluoromethyl)-1,3,4-oxadiazol-2-yl)-2-fluorobenzyl)-1H-1,2,3-triazol-4-yl)benzyl)-4,4-difluorocyclohexan-1-amine] | 2008 | 24.9 | > 50000
OCc1c(-c2ccccc2)nnn1Cc1ccc(-c2nnc(C(F)F)o2)cc1F [Compound 4479, (1-(4-(5-(difluoromethyl)-1,3,4-oxadiazol-2-yl)-2-fluorobenzyl)-4-phenyl-1H-1,2,3-triazol-5-yl)methanol] | 103 | 483 | > 50000
CN1CCN(c2cccc(-c3cn(Cc4ccc(-c5nnc(C(F)F)o5)cc4)nn3)c2F)CC1 [Compound 4483, 2-(difluoromethyl)-5-(4-((4-(2-fluoro-3-(4-methylpiperazin-1-yl)phenyl)-1H-1,2,3-triazol-1-yl)methyl)phenyl)-1,3,4-oxadiazole] | 1466 | 34.1 | > 50000
Fc1cc(-c2nnc(C(F)F)o2)ccc1Cn1cc(-c2cccc(C(F)F)c2)nn1 [Compound 4488, 2-(difluoromethyl)-5-(4-((4-(3-(difluoromethyl)phenyl)-1H-1,2,3-triazol-1-yl)methyl)-3-fluorophenyl)-1,3,4-oxadiazole] | 1059 | 47.2 | > 50000
CN(C)Cc1c(-c2ccccc2)nnn1Cc1ccc(-c2nnc(C(F)F)o2)cn1 [Compound 4490, 1-(1-((5-(5-(difluoromethyl)-1,3,4-oxadiazol-2-yl)pyridin-2-yl)methyl)-4-phenyl-1H-1,2,3-triazol-5-yl)-N,N-dimethylmethanamine] | 571 | 87.5 | > 50000
CN(C)Cc1c(-c2ccccc2)nnn1Cc1ccc(-c2nnc(C(F)F)o2)cc1F [Compound 4491, 1-(1-(4-(5-(difluoromethyl)-1,3,4-oxadiazol-2-yl)-2-fluorobenzyl)-4-phenyl-1H-1,2,3-triazol-5-yl)-N,N-dimethylmethanamine] | 433 | 115 | > 50000
CC1CCN(Cc2c[nH]c3cc(-c4cn(Cc5ccc(-c6nnc(C(F)F)o6)cc5)nn4)ccc23)CC1 [Compound 4492, 2-(difluoromethyl)-5-(4-((4-(3-((4-methylpiperidin-1-yl)methyl)-1H-indol-6-yl)-1H-1,2,3-triazol-1-yl)methyl)phenyl)-1,3,4-oxadiazole] | 3333 | 15 | > 50000
CN(C)C1CCN(Cc2ccc(-c3cn(Cc4ccc(-c5nnc(C(F)F)o5)cc4F)nn3)cc2)CC1 [Compound 4494, 1-(4-(1-(4-(5-(difluoromethyl)-1,3,4-oxadiazol-2-yl)-2-fluorobenzyl)-1H-1,2,3-triazol-4-yl)benzyl)-N,N-dimethylpiperidin-4-amine] | 1466 | 34.1 | > 50000

Next, values leading:

HDAC6 selectivity (fold) (human recombinant HDAC6) | IC50 (human recombinant HDAC6) [nM] | IC50 (human recombinant HDAC1) [nM] | SMILES
437 | 114 | > 50000 | OCc1c(-c2ccccc2)nnn1Cc1ccc(-c2nnc(C(F)F)o2)cn1 [Compound 4478, (1-((5-(5-(difluoromethyl)-1,3,4-oxadiazol-2-yl)pyridin-2-yl)methyl)-4-phenyl-1H-1,2,3-triazol-5-yl)methanol]
1388 | 36 | > 50000 | CN1CC(NC(=O)c2cccc(-c3cn(Cc4ccc(-c5nnc(C(F)F)o5)cn4)nn3)c2)C1 [Compound 4480, 3-(1-((5-(5-(difluoromethyl)-1,3,4-oxadiazol-2-yl)pyridin-2-yl)methyl)-1H-1,2,3-triazol-4-yl)-N-(1-methylazetidin-3-yl)benzamide]
943 | 53 | > 50000 | CCN1CCN(C(=O)c2cccc(-c3cn(Cc4ccc(-c5nnc(C(F)F)o5)cn4)nn3)c2)CC1 [Compound 4482, (3-(1-((5-(5-(difluoromethyl)-1,3,4-oxadiazol-2-yl)pyridin-2-yl)methyl)-1H-1,2,3-triazol-4-yl)phenyl)(4-ethylpiperazin-1-yl)methanone]
627 | 79.7 | > 50000 | FC(F)c1cccc(-c2cn(Cc3ccc(-c4nnc(C(F)F)o4)cc3)nn2)c1 [Compound 4487, 2-(difluoromethyl)-5-(4-((4-(3-(difluoromethyl)phenyl)-1H-1,2,3-triazol-1-yl)methyl)phenyl)-1,3,4-oxadiazole]
3401 | 14.7 | > 50000 | FC(F)c1cccc(-c2cn(Cc3ccc(-c4nnc(C(F)F)o4)cn3)nn2)c1 [Compound 4489, 2-(difluoromethyl)-5-(6-((4-(3-(difluoromethyl)phenyl)-1H-1,2,3-triazol-1-yl)methyl)pyridin-3-yl)-1,3,4-oxadiazole]
7692 | 6.5 | > 50000 | FC(F)c1nnc(-c2ccc(Cn3cc(-c4ccc5c(CN6CCCC6)c[nH]c5c4)nn3)nc2)o1 [Compound 4493, 2-(difluoromethyl)-5-(6-((4-(3-(pyrrolidin-1-ylmethyl)-1H-indol-6-yl)-1H-1,2,3-triazol-1-yl)methyl)pyridin-3-yl)-1,3,4-oxadiazole]
2262 | 22.1 | > 50000 | CC(C)(C)OC(=O)NC(C)(C)C(=O)Nc1cccc(-c2cn(Cc3ccc(-c4nnc(C(F)F)o4)cn3)nn2)c1 [Compound 4495]
3355 | 14.9 | > 50000 | CC(C)(C)OC(=O)NC1(C(=O)Nc2cccc(-c3cn(Cc4ccc(-c5nnc(C(F)F)o5)cn4)nn3)c2)CCC1 [Compound 4496, tert-butyl (1-((3-(1-((5-(5-(difluoromethyl)-1,3,4-oxadiazol-2-yl)pyridin-2-yl)methyl)-1H-1,2,3-triazol-4-yl)phenyl)carbamoyl)cyclobutyl)carbamate]
3759 | 13.3 | > 50000 | CC(C)(N)C(=O)Nc1cccc(-c2cn(Cc3ccc(-c4nnc(C(F)F)o4)cn3)nn2)c1 [Compound 4497, 2-amino-N-(3-(1-((5-(5-(difluoromethyl)-1,3,4-oxadiazol-2-yl)pyridin-2-yl)methyl)-1H-1,2,3-triazol-4-yl)phenyl)-2-methylpropanamide]
